One may read the IC50 as the concentration that inhibits the measured activity by half.

T1 sequence (Q9NZQ7 19-238): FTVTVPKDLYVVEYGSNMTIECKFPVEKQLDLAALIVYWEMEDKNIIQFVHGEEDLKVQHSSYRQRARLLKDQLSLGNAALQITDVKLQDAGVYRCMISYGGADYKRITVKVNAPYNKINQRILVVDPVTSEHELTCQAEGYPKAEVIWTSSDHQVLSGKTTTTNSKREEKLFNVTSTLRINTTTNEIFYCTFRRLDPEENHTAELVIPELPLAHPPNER

One assay has as its target T1, PD-1/PD-L1 (Homo sapiens, UniProt Q9NZQ7).
T1 construct: Recombinant human PD-L1 protein (19-238) with a His-tag at the C-terminus; purchased AcroBiosystems PD1-H5229 (PD-L1); PD1-H5257 (PD-1)
The experiment in a line: PD-1/PD-L1 homogenous time-resolved fluorescence (HTRF) binding assay. The settings on record: recombinant human PD-L1 (19-238) His-tag / human PD-1 (25-167) Fc tag, class symbols. The procedure, abridged:
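Inhibitors were preincubated 40 min at 25°C with 10 nM His-tagged human PD-L1 (19-238) and 3 nM Fc-tagged human PD-1 (25-167) in PBS pH 7.4 containing Tween-20, BSA and 1% DMSO. After 60 min with europium anti-human IgG and anti-His-APC, 665/620 nm signal ratio gave IC50 via percent-control fit.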
(In TR-FRET formats the signal depends on donor and acceptor labels being close together.)
As for `Cc1ccc(-c2ccc(C)c(NC(=O)c3nc4c(s3)CNCC4)c2C)c(C)c1NC(=O)c1nc2c(s1)CNCC2` [Example 94, N,N′-(2,2′,4,4′-tetramethyl-[1,1′-biphenyl]-3,3′-diyl)bis(4,5,6,7-tetrahydrothiazolo[5,4-c]pyridine-2-carboxamide)], the half-maximal inhibitory concentration (IC50) was less than 25 nM.

In the case of `Cc1c(NC(=O)c2nc3c(s2)CNCC3)cc(F)cc1-c1cccc2c1CCN2C(=O)c1nc2c(s1)CNCC2` [Example 95, N-(5-fluoro-2-methyl-3-(1-(4,5,6,7-tetrahydrothiazolo[5,4-c]pyridine-2-carbonyl)indolin-4-yl)phenyl)-4,5,6,7-tetrahydrothiazolo[5,4-c]pyridine-2-carboxamide], the IC50 was less than 25 nM.

Turning to `Cc1c(NC(=O)c2nc3c(s2)CNCC3)cc(F)cc1-c1cc(F)cc(NC(=O)c2nc3c(s2)CNCC3)c1C` [Example 96, N,N′-(5,5′-difluoro-2,2′-dimethyl-[1,1′-biphenyl]-3,3′-diyl)bis(4,5,6,7-tetrahydrothiazolo[5,4-c]pyridine-2-carboxamide)], the concentration for half-maximal inhibition (IC50) is less than 25 nM.

Turning to `O=C(Nc1cccc(-c2cccc(NC(=O)c3nc4c(s3)CNCC4)c2Cl)c1Cl)c1ncc(CNCCO)s1` [Example 97, N-(2,2′-dichloro-3′-(5-(((2-hydroxyethyl)amino)methyl)thiazole-2-carboxamido)-[1,1′-biphenyl]-3-yl)-4,5,6,7-tetrahydrothiazolo[5,4-c]pyridine-2-carboxamide], the IC50 is less than 25 nM.

Take `O=C(Nc1cccc(-c2cccc(Nc3nccc4cc(CNCCO)cnc34)c2Cl)c1Cl)c1ncc(CNCCO)s1` [Example 98, N-(2,2′-dichloro-3′-((3-(((2-hydroxyethyl)amino)methyl)-1,7-naphthyridin-8-yl)amino)-[1,1′-biphenyl]-3-yl)-5-(((2-hydroxyethyl)amino)methyl)thiazole-2-carboxamide]: the concentration for half-maximal inhibition (IC50) was less than 25 nM.

Turning to `O=C(c1ncc(CNCCO)s1)N1CCc2c(-c3cccc4c3CCN4C(=O)c3nc4c(s3)CNCC4)cccc21` [Example 99, (5-(((2-hydroxyethyl)amino)methyl)thiazol-2-yl)(1′-(4,5,6,7-tetrahydrothiazolo[5,4-c]pyridine-2-carbonyl)-[4,4′-biindolin]-1-yl)methanone], the half-inhibitory concentration (IC50) was less than 25 nM.

With `O=C(c1nc2c(s1)CNCC2)N1CCc2c(-c3cccc4c3CCN4c3nccc4cc(CNCCO)cnc34)cccc21` [Example 100, (1′-(3-(((2-hydroxyethyl)amino)methyl)-1,7-naphthyridin-8-yl)-[4,4′-biindolin]-1-yl)(4,5,6,7-tetrahydrothiazolo[5,4-c]pyridin-2-yl)methanone], the half-maximal inhibitory concentration (IC50) was less than 25 nM.

`O=C(Nc1cccc(-c2cccc3c2CCN3C(=O)c2nc3c(s2)CNCC3)c1Cl)c1ncc(CNCCO)s1` [Example 101, N-(2-chloro-3-(1-(4,5,6,7-tetrahydrothiazolo[5,4-c]pyridine-2-carbonyl)indolin-4-yl)phenyl)-5-(((2-hydroxyethyl)amino)methyl)thiazole-2-carboxamide]: the IC50 is less than 25 nM.

In the case of `COC(=O)CN1CCc2nc(C(=O)N3CCc4c(-c5cccc6c5CCN6C(=O)c5nc6c(s5)CN(CC(=O)OC)CC6)cccc43)sc2C1` [Example 102, dimethyl 2,2′-(([4,4′-biindoline]-1,1′-dicarbonyl)bis(6,7-dihydrothiazolo[5,4-c]pyridine-2,5(4H)-diyl))diacetate], the IC50 was less than 25 nM.

With `NC(=O)CN1CCc2nc(C(=O)N3CCc4c(-c5cccc6c5CCN6C(=O)c5nc6c(s5)CN(CC(N)=O)CC6)cccc43)sc2C1` [Example 104, 2,2′-(([4,4′-biindoline]-1,1′-dicarbonyl)bis(6,7-dihydrothiazolo[5,4-c]pyridine-2,5(4H)-diyl))diacetamide], the IC50 was less than 25 nM.

With `CNC(=O)CN1CCc2nc(C(=O)N3CCc4c(-c5cccc6c5CCN6C(=O)c5nc6c(s5)CN(CC(=O)NC)CC6)cccc43)sc2C1` [Example 105, 2,2′-(([4,4′-biindoline]-1,1′-dicarbonyl)bis(6,7-dihydrothiazolo[5,4-c]pyridine-2,5(4H)-diyl))bis(N-methylacetamide)], the half-inhibitory concentration (IC50) is less than 25 nM.

Consider `CN(C)C(=O)CN1CCc2nc(C(=O)N3CCc4c(-c5cccc6c5CCN6C(=O)c5nc6c(s5)CN(CC(=O)N(C)C)CC6)cccc43)sc2C1` [Example 106, 2,2′-(([4,4′-biindoline]-1,1′-dicarbonyl)bis(6,7-dihydrothiazolo[5,4-c]pyridine-2,5(4H)-diyl))bis(N,N-dimethylacetamide)], for which the IC50 is less than 25 nM.

For `NC(=O)CN1CCc2nc(C(=O)N3CCc4c(-c5cccc6c5CCN6C(=O)c5nc6c(s5)CN(CC(=O)O)CC6)cccc43)sc2C1` [Example 107, 2-(2-(1′-(5-(2-amino-2-oxoethyl)-4,5,6,7-tetrahydrothiazolo[5,4-c]pyridine-2-carbonyl)-[4,4′-biindoline]-1-carbonyl)-6,7-dihydrothiazolo[5,4-c]pyridin-5(4H)-yl)acetic acid], the half-maximal inhibitory concentration (IC50) was less than 25 nM.

For the compound `CNC(=O)CN1CCc2nc(C(=O)N3CCc4c(-c5cccc6c5CCN6C(=O)c5nc6c(s5)CN(CC(=O)O)CC6)cccc43)sc2C1` [Example 108, 2-(2-(1′-(5-(2-(methylamino)-2-oxoethyl)-4,5,6,7-tetrahydrothiazolo[5,4-c]pyridine-2-carbonyl)-[4,4′-biindoline]-1-carbonyl)-6,7-dihydrothiazolo[5,4-c]pyridin-5(4H)-yl)acetic acid], the IC50 was less than 25 nM.

Consider `CN(C)C(=O)CN1CCc2nc(C(=O)N3CCc4c(-c5cccc6c5CCN6C(=O)c5nc6c(s5)CN(CC(=O)O)CC6)cccc43)sc2C1` [Example 109, 2-(2-(1′-(5-(2-(dimethylamino)-2-oxoethyl)-4,5,6,7-tetrahydrothiazolo[5,4-c]pyridine-2-carbonyl)-[4,4′-biindoline]-1-carbonyl)-6,7-dihydrothiazolo[5,4-c]pyridin-5(4H)-yl)acetic acid], for which the IC50 was less than 25 nM.

As for `O=C(O)CN1C2CCC1c1sc(C(=O)N3CCc4c(-c5cccc6c5CCN6C(=O)c5nc6c(s5)C5CCC(C6)N5CC(=O)O)cccc43)nc1C2` [Example 110, 2,2′-(([4,4′-biindoline]-1,1′-dicarbonyl)bis(5,6,7,8-tetrahydro-4H-5,8-epiminocyclohepta[d]thiazole-2,9-diyl))diacetic acid], the IC50 was less than 25 nM.

As for `NC(=O)CN1C2CCC1c1sc(C(=O)N3CCc4c(-c5cccc6c5CCN6C(=O)c5nc6c(s5)C5CCC(C6)N5CC(=O)O)cccc43)nc1C2` (stereo not shown) [Example 111, 2-(2-(1′-(9-(2-amino-2-oxoethyl)-5,6,7,8-tetrahydro-4H-5,8-epiminocyclohepta[d]thiazole-2-carbonyl)-[4,4′-biindoline]-1-carbonyl)-5,6,7,8-tetrahydro-4H-5,8-epiminocyclohepta[d]thiazol-9-yl)acetic acid], the IC50 was less than 25 nM.

As to `CN(C)Cc1cnc(C(=O)N2CCc3c(-c4cccc5c4CCN5C(=O)c4ncc(CN(C)C)s4)cccc32)s1` [Example 112, [4,4′-biindoline]-1,1′-diylbis((5-((dimethylamino)methyl)thiazol-2-yl)methanone)], the IC50 was less than 25 nM.

Still in this assay, the particulars now being: recombinant human PD-L1 (19-238) His-tag / human PD-1 (25-167) Fc tag, numeric values.
Turning to `O=C(O)CN1CCc2nc(C(=O)N3CCc4c(-c5cccc6c5CCN6C(=O)c5nc6c(s5)CN(CC(=O)O)CC6)cccc43)sc2C1` [Example 103, 2,2′-(([4,4′-biindoline]-1,1′-dicarbonyl)bis(6,7-dihydrothiazolo[5,4-c]pyridine-2,5(4H)-diyl))diacetic acid], the IC50 was determined as 0.37 nM.
